Measurements published in patent US11124537B2, “Inhibitors of glucocorticoid receptor” (ORIC Pharmaceuticals, Inc., priority 2015, dated 2021).

Target: GR (Homo sapiens (Human), UniProt P04150)
Assay: In Vitro GR Luciferase Reporter Assay
Format: cell-based
Details: CHO-K1-GR-MMTV-Luc reporter cells, antagonist assay, 10 nM Dexamethasone, 18-24 hours
Excerpt: Example 4: In Vitro GR Luciferase Reporter Assay
Cell Line: CHO-K1-GR-MMTV-Luc reporter cells
Culture Media: DMEM (with phenol red)+10% FBS
Assay Media: DMEM (without phenol red)+10% CSS
Culture CHO-K1-GR-MMTV-Luc reporter cells in 15 cm plates in Culture Media at conditions less than 90% confluence.
Prepare 200×DMSO 1:5 serial dilutions of control and test compounds in 96-well non-sterile V bottom plate in DMSO, 8 serial dilutions for each compound.
Prepare 5× Assay Media diluted compound serial dilutions in 96-well non-sterile V bottom plate: Add 97.5 uL/well of Assay Media into 96-well then add 2.5 ul of 200× concentration of compounds and mix well.
Seed cells for Antagonist Assay: […] CHO-K1-GR-MMTV-Luc reporter cells were seeded in a Corning 3707 flat clear bottom 384-well white TC plate in 20 ul of Assay Media containing 12.5 nM Dexamethasone (final concentration=10 nM).
Add compounds: 5 ul of assay media diluted compounds were added to appropriate wells and followed a quick spin (1000 rpm, 10 sec) to bring media and cells to the bottom of plate. The plates were covered with SealMate film to avoid evaporation and placed in 37° C. incubator for approximately 18-24 hours.
Read plates: Equilibrate appropriate amount of Promega OneGlo luciferase reagent to room temperature. Remove the plates from incubator and add 25 uL of OneGlo reagent/well by multiple channel pipette and read the plates with Tecan F500 luminometer within 3 minutes.
The ability of the compounds disclosed herein to inhibit GR activity was quantified and the respective IC50 value was determined. Table 3 provides the cellular IC50 values of various substituted steroidal compounds disclosed herein.

Chain of GR (P04150 whole entry): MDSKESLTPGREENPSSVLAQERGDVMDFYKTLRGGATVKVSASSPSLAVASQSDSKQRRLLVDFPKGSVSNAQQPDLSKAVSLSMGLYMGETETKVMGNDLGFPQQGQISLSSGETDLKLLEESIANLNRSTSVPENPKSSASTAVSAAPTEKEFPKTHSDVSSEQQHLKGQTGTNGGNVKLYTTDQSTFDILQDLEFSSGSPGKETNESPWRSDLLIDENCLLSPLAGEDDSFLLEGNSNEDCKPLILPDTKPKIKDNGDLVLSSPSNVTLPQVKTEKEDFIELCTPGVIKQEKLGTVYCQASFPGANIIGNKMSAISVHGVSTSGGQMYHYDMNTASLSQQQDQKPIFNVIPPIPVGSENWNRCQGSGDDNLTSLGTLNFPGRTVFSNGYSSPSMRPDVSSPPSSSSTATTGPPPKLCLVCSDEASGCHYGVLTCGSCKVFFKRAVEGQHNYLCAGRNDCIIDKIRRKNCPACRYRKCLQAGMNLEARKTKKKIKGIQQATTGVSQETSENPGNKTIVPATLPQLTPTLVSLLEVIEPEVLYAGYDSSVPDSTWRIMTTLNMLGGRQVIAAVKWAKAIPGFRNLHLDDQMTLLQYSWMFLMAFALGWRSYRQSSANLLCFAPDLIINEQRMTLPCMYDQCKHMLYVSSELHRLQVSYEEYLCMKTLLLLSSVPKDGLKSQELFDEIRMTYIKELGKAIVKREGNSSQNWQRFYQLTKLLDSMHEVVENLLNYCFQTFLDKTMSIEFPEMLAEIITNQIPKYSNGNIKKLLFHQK

Compound | IC50 [nM]
CN(C)c1ccc([C@H]2C[C@@]3(C)[C@@H](CC[C@@]3(O)C#CC(C)(C)C)[C@@H]3CCC4=CC(=O)CCC4=C32)cc1 | ≤ 100
CN(C)c1ccc([C@H]2C[C@@]3(C)[C@@H](CC[C@@]3(O)C#Cc3ccccn3)[C@@H]3CCC4=CC(=O)CCC4=C32)cc1 | ≤ 100
CN(C)c1ccc([C@H]2C[C@@]3(C)[C@@H](CC[C@@]3(O)C#Cc3ccc(Cl)cc3)[C@@H]3CCC4=CC(=O)CCC4=C32)cc1 | ≤ 100
[2H]C([2H])([2H])N(c1ccc([C@H]2C[C@@]3(C)[C@@H](CC[C@@]3(O)C#CC(C)(C)C)[C@@H]3CCC4=CC(=O)CCC4=C32)cc1)C([2H])([2H])[2H] | ≤ 100
CC(C)C#C[C@]1(O)CC[C@H]2[C@@H]3CCC4=CC(=O)CCC4=C3[C@@H](c3ccc4c(c3)OCCO4)C[C@@]21C | ≤ 100
C[C@]12C[C@H](c3ccc4c(c3)OCO4)C3=C4CCC(=O)C=C4CC[C@H]3[C@@H]1CC[C@@]2(O)C#Cc1ccc(S(C)(=O)=O)cc1 | ≤ 100
C[C@]12C[C@H](c3ccc4c(c3)OCO4)C3=C4CCC(=O)C=C4CC[C@H]3[C@@H]1CC[C@@]2(O)C#CC(F)(F)F | ≤ 100
C[C@]12C[C@H](c3ccc4c(c3)OCCO4)C3=C4CCC(=O)C=C4CC[C@H]3[C@@H]1CC[C@@]2(O)C#CC1CC1 | ≤ 100
CC(C)(C)C#C[C@]1(O)CC[C@H]2[C@@H]3CCC4=CC(=O)CCC4=C3[C@@H](c3ccc4c(c3)OCCO4)C[C@@]21C | ≤ 100
C[C@]12C[C@H](c3ccc4c(c3)OCCO4)C3=C4CCC(=O)C=C4CC[C@H]3[C@@H]1CC[C@@]2(O)C#CC(F)(F)F | ≤ 100
C[C@]12C[C@H](c3ccc4c(c3)OCO4)C3=C4CCC(=O)C=C4CC[C@H]3[C@@H]1CC[C@@]2(O)C#CC1CC1 | ≤ 100
CC(C)C#C[C@]1(O)CC[C@H]2[C@@H]3CCC4=CC(=O)CCC4=C3[C@@H](c3ccc4c(c3)OCO4)C[C@@]21C | ≤ 100
CC(C)c1ccc([C@H]2C[C@@]3(C)[C@@H](C[C@@H](C)[C@@]3(O)C#CC(C)(C)C)[C@@H]3CCC4=CC(=O)CCC4=C32)cc1 | > 100
COC(C)(C)C#C[C@]1(O)CC[C@H]2[C@@H]3CCC4=CC(=O)CCC4=C3[C@@H](c3ccc(N(C)C)cc3)C[C@@]21C | ≤ 100
CN(C(=O)CO)c1ccc([C@H]2C[C@@]3(C)[C@@H](CC[C@@]3(O)C#CC(C)(C)C)[C@@H]3CCC4=CC(=O)CCC4=C32)cc1 | > 100
CC(C)(C)C#C[C@]1(O)CC[C@H]2[C@@H]3CCC4=CC(=O)CCC4=C3[C@@H](c3ccc(N4CCS(=O)(=O)CC4)cc3)C[C@@]21C | ≤ 100
[2H]C([2H])([2H])C#C[C@]1(O)CC[C@H]2[C@@H]3CCC4=CC(=O)CCC4=C3[C@@H](c3cc(F)c(C)c(F)c3)C[C@@]21C | ≤ 100
COCCN(C)c1ccc([C@H]2C[C@@]3(C)[C@@H](CC[C@@]3(O)C#CC(C)(C)C)[C@@H]3CCC4=CC(=O)CCC4=C32)cc1 | ≤ 100
CN(CC(F)(F)F)c1ccc([C@H]2C[C@@]3(C)[C@@H](CC[C@@]3(O)C#CC(C)(C)C)[C@@H]3CCC4=CC(=O)CCC4=C32)cc1 | ≤ 100
COC(C)(C)C#C[C@]1(O)CC[C@H]2[C@@H]3CCC4=CC(=O)CCC4=C3[C@@H](c3ccc(N(C)CC(F)(F)F)cc3)C[C@@]21C | ≤ 100
COCCN(C)c1ccc([C@H]2C[C@@]3(C)[C@@H](CC[C@@]3(O)C#CC(C)(C)OC)[C@@H]3CCC4=CC(=O)CCC4=C32)cc1 | ≤ 100
CC(C)(C)C#C[C@]1(O)CC[C@H]2[C@@H]3CCC4=CC(=O)CCC4=C3[C@@H](c3ccc(N4CCN(C(=O)CO)CC4)cc3)C[C@@]21C | ≤ 100
COC(C)(C)C#C[C@]1(O)CC[C@H]2[C@@H]3CCC4=CC(=O)CCC4=C3[C@@H](c3ccc(N4CCN(C(=O)CO)CC4)cc3)C[C@@]21C | > 100
COC1CN(c2ccc([C@H]3C[C@@]4(C)[C@@H](CC[C@@]4(O)C#CC(C)(C)OC)[C@@H]4CCC5=CC(=O)CCC5=C43)cc2)C1 | > 100

Compound | IC50 [nM]
CC(=O)N1CCN(c2ccc([C@H]3C[C@@]4(C)[C@@H](CC[C@@]4(O)C#CC(C)(C)C)[C@@H]4CCC5=CC(=O)CCC5=C43)cc2)CC1 | ≤ 100
COC(C)(C)C#C[C@]1(O)CC[C@H]2[C@@H]3CCC4=CC(=O)CCC4=C3[C@@H](c3ccc(N4CCS(=O)(=O)CC4)cc3)C[C@@]21C | > 100
CC(C)(C)C#C[C@]1(O)CC[C@H]2[C@@H]3CCC4=CC(=O)CCC4=C3[C@@H](c3ccc(C(C)(CO)CO)cc3)C[C@@]21C | ≤ 100
CC(C)(C)C#C[C@]1(O)CC[C@H]2[C@@H]3CCC4=CC(=O)CCC4=C3[C@@H](c3ccc(C4(C)COC4)cc3)C[C@@]21C | ≤ 100
CN(C)c1ccc([C@H]2C[C@@]3(C)[C@@H](CC[C@@]3(O)C#Cc3ccccc3)[C@@H]3CCC4=CC(=O)CCC4=C32)cc1 [drawing 266] | ≤ 100
CC(C)(C)C#C[C@]1(O)CC[C@H]2[C@@H]3CCC4=CC(=O)CCC4=C3[C@@H](c3ccc(C(C)(C)C)cc3)C[C@@]21C [drawing 268] | ≤ 100
CC(C)(C)C#C[C@]1(O)CC[C@H]2[C@@H]3CCC4=CC(=O)CCC4=C3[C@@H](c3ccc(N4CCCC4)cc3)C[C@@]21C [drawing 276] | ≤ 100
CC(C)(C)C#C[C@]1(O)CC[C@H]2[C@@H]3CCC4=CC(=O)CCC4=C3[C@@H](c3cccc(C4CC4)c3)C[C@@]21C [drawing 279] | > 100
Cc1cc([C@H]2C[C@@]3(C)[C@@H](CC[C@@]3(O)C#CC(C)(C)C)[C@@H]3CCC4=CC(=O)CCC4=C32)ccc1N(C)C [drawing 283] | ≤ 100
CN(C)c1ccc([C@H]2C[C@@]3(C)[C@@H](CC[C@@]3(O)C#CC(C)(C)C)[C@@H]3CCC4=CC(=O)CCC4=C32)cc1F [drawing 284] | ≤ 100
Cc1c(F)cc([C@H]2C[C@@]3(C)[C@@H](CC[C@@]3(O)C#Cc3ccc(S(C)(=O)=O)cc3)[C@@H]3CCC4=CC(=O)CCC4=C32)cc1F [drawing 293] | ≤ 100
CC(C)C#C[C@]1(O)CC[C@H]2[C@@H]3CCC4=CC(=O)CCC4=C3[C@@H](c3c(F)cc(N4CCOCC4)cc3F)C[C@@]21C [drawing 294] | ≤ 100
CC(C)C#C[C@]1(O)CC[C@H]2[C@@H]3CCC4=CC(=O)CCC4=C3[C@@H](c3cc(F)c(C(C)C)c(F)c3)C[C@@]21C [drawing 299] | ≤ 100
CN(C)c1ccc([C@H]2C[C@@]3(C)[C@@H](CC[C@@]3(O)C#CC3CC3)[C@@H]3CCC4=CC(=O)CCC4=C32)c(F)c1F [drawing 303] | ≤ 100
CN(C)c1cc(F)c([C@H]2C[C@@]3(C)[C@@H](CC[C@@]3(O)C#CC(C)(C)C)[C@@H]3CCC4=CC(=O)CCC4=C32)cc1F [drawing 304] | ≤ 100
CCC#C[C@]1(O)CC[C@H]2[C@@H]3CCC4=CC(=O)CCC4=C3[C@@H](c3ccc4c(c3)OCCO4)C[C@@]21C [drawing 324] | ≤ 100
CC(C)(C)C#C[C@]1(O)CC[C@H]2[C@@H]3CCC4=CC(=O)CCC4=C3[C@@H](c3ccc4c(c3)OCO4)C[C@@]21C [drawing 331] | ≤ 100
C[C@@H]1C[C@H]2[C@@H]3CCC4=CC(=O)CCC4=C3[C@@H](c3ccc(N(C)C)cc3)C[C@]2(C)[C@]1(O)C#CC(C)(C)C [drawing 335] | > 100
COC(C)(C)C#C[C@]1(O)CC[C@H]2[C@@H]3CCC4=CC(=O)CCC4=C3[C@@H](c3ccc(N4CCCC4)cc3)C[C@@]21C [drawing 340] | ≤ 100
COC1CN(c2ccc([C@H]3C[C@@]4(C)[C@@H](CC[C@@]4(O)C#CC(C)(C)C)[C@@H]4CCC5=CC(=O)CCC5=C43)cc2)C1 [drawing 341] | ≤ 100
CC(C)(C)C#C[C@]1(O)CC[C@H]2[C@@H]3CCC4=CC(=O)CCC4=C3[C@@H](c3ccc(N4CCN(S(C)(=O)=O)CC4)cc3)C[C@@]21C [drawing 346] | ≤ 100
CN(C)c1ccc([C@H]2C[C@@]3(C)[C@@H](CC[C@@]3(O)C#Cc3ccc(S(C)(=O)=O)cc3)[C@@H]3CCC4=CC(=O)CCC4=C32)cc1 [drawing 352] | ≤ 100
CN(C)c1ccc([C@H]2C[C@@]3(C)[C@@H](CC[C@@]3(O)C#CC3(C)COC3)[C@@H]3CCC4=CC(=O)CCC4=C32)cc1 [drawing 354] | ≤ 100
CC(C)(C)C#C[C@]1(O)CC[C@H]2[C@@H]3CCC4=CC(=O)CCC4=C3[C@@H](c3ccc(N4CCC[C@@H]4CO)cc3)C[C@@]21C [drawing 364] | ≤ 100
